Consider 15 compounds from publication PMC8151276, “An Integrated Approach toward NanoBRET Tracers for Analysis of GPCR Ligand Engagement” (Molecules, 2021).

Holding throughout (type): binding
One test addresses T1, AVPR2 (Homo sapiens, UniProt P30518).
T1 construct: purchased Promega (in-house HiBiT-GPCR construct library, NanoBRET)
As to the kind of experiment: NanoBRET screen HiBiT-AVPR2 in HEK293. On the procedure:
(§1) Each tracer candidate was screened across the entire library of HiBiT-GPCR constructs using NanoBRET as the detection modality. As depicted in Figure 4A, the specificity of interactions was evaluated through decrease in BRET due to competitive displacement of a bound tracer by excess parental compound. Each tracer was analyzed for binding to each HiBiT-GPCR fusion in the absence and in the presence of competing parental compound. Briefly, HEK293 cells were transfected with HiBiT-GPCR constructs diluted into promoterless DNA to reduce expression and maximize translocation to the cell surface. Each tracer candidate was then screened at concentrations of 1 μM and 0.1 μM across cells expressing these fusions. Cells were treated for 1.5 h with tracer either alone or in the presence of 20 μM competing parental compound (i.e., control). BRET was measured upon addition of purified LgBiT and subsequent complementation with HiBiT genetically fused to a GPCR. The specificity of interactions was assessed through a decrease in BRET signal due to competitive displacement of the bound tracer. To further gauge the robustness of these interactions, the fold response over the control (i.e., BRETtracer/BRETcontrol) was calculated. We chose a 1.5-fold response, which translates to ≥7-fold signal over noise as the minimal threshold required to score an interaction as positive. […]. Below we highlight the screening results obtained for our exemplary fluorescent tracers based on Clozapine, Amitriptyline and AZD1283.
(§2) HiBiT-GPCR DNA constructs were diluted in 10 mM Tris pH 8 to a final concentration of 0.01 μg/μL, arrayed in 96-well plates and stored at −20 °C. For transfection, HEK293 cells were suspended in Opti-MEM (without phenol red) supplemented with 2% fetal bovine serum (Seradigm) and 100 units/mL penicillin–streptomycin (Gibco) at a final concentration of 220,000 cells/mL and dispensed into white 96-well plates at 90 μL/well. Subsequent transfections and screens were carried using an Agilent Bravo Automated Liquid Handling Platform. First, the 96-well HiBiT DNA arrays were diluted 25-fold in Opti-MEM (without serum or phenol red) to a final concentration of 0.0004 μg/μL and 20 μL of the diluted DNAs were transferred into new 96-well plates. Next, promoterless carrier DNA (1 μg/μL) was diluted 25-fold (0.04 μg/μL) and then dispensed into the diluted arrays at 20 μL/well. Following brief mixing, Viafect transfection reagent (Promega) diluted 16-fold into Opti-MEM was dispensed into the plates at 40 μL/well. After mixing by pipetting, plates were incubated for 10 min on the pipetting station deck. The DNA-transfection reagent complexes were then added to plates containing cells. To facilitate the screen, 10 μL of DNA-transfection reagent complexes were added in duplicates to the top 4 and bottom 4 rows, resulting in two identical 48-well arrays per plate. Plates with transfected cells were incubated for 18–20 h at 37 °C/5% CO2. A screen of each tracer across the entire library using two different concentrations requires duplicate plates of transfected cells. Depending on the number of tracers being screened, transfections can be scaled up using the same ratios. The next day, for each tracer, four 20× screening solutions in tracer dilution buffer (Promega) were prepared: two duplicates at final concentration of 20 μM and two duplicates at a final concentration of 2 μM. A competing unmodified compound was added to one of each duplicate at a final concentration of 400 μM. The four resulting solutions were diluted 4-fold in Opti-MEM without serum or phenol red to generate 5× solutions (5 µM and 0.5 µM tracer +/− 100 μM competing compound). To screen the library, a BioTek MultiFlo FX liquid dispenser was used to dispense 22.5 µL of tracer solution to the top 4 rows and 22.5 µL tracer + competing compound solution to the 4 bottom rows. Plates were briefly mixed on an orbital shaker and incubated for 1.5 h at room temperature. […]
(In BRET a luciferase serves as donor, and the signal depends on an acceptor being close.)

The target in the next test is T2, SSTR1 (Homo sapiens, UniProt P30872).
T2 construct: purchased Promega (in-house HiBiT-GPCR construct library, NanoBRET)
Kind of test: NanoBRET screen HiBiT-SSTR1 in HEK293. On the procedure:
as §1, §2

Another test concerns the target T3, MCHR1 (Homo sapiens, UniProt Q99705).
T3 construct: purchased Promega (in-house HiBiT-GPCR construct library, NanoBRET)
As to the kind of experiment: NanoBRET screen HiBiT-MCHR1 in HEK293. Here is the method:
as §1, §2

T1 sequence (P30518 whole entry): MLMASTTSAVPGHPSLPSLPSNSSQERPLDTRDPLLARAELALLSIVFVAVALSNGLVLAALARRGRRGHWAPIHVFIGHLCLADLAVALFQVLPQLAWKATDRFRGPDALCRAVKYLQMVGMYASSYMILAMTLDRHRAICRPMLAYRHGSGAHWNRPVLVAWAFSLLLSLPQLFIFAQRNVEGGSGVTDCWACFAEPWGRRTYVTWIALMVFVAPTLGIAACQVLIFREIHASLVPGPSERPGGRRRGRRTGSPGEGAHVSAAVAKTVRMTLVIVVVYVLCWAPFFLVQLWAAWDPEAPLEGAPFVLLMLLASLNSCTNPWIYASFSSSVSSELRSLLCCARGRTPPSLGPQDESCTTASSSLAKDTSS
T3 sequence (Q99705 whole entry): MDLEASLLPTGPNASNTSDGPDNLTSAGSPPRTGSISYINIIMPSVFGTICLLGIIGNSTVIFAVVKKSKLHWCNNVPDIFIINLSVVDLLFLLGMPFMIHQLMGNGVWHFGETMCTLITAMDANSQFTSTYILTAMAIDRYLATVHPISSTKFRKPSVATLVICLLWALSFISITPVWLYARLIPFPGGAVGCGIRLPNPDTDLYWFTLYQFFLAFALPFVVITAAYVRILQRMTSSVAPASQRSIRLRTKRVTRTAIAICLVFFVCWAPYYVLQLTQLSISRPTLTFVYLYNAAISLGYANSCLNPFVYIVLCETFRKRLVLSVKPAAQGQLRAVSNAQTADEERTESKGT
T2 sequence (P30872 whole entry): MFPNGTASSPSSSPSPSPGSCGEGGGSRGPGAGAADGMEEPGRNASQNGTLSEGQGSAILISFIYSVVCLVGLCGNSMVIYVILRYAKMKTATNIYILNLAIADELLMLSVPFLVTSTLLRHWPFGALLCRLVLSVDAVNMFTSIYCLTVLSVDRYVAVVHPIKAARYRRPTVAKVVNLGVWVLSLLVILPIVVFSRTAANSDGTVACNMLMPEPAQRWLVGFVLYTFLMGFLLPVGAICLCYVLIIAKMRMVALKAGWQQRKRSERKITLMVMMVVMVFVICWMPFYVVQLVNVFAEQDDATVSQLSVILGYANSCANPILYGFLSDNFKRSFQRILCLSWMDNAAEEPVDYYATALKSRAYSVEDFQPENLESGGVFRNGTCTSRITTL

Turning to `COc1ccc2c(n1)c(CCNC(C)=O)cn2CCNC(=O)CCc1ccc2n1[B-](F)(F)[N+]1=C(c3ccc[nH]3)C=CC1=C2` [Azamelatonin-1-NB590], the “NanoBRET Fold Response” value on AVPR2 (0.1μM tracer) is on record as 0.91; on AVPR2 (1μM tracer), 1.01; on SSTR1 (0.1μM tracer) it was 1.08; on SSTR1 (1μM tracer), 1.03; at MCHR1 (0.1μM tracer) it was 0.96; on MCHR1 (1μM tracer), 0.84.
For the compound `CC(C)N(CC[C@H](c1ccccc1)c1cc(CCNC(=O)c2ccc(CNC(=O)CCc3ccc4n3[B-](F)(F)[N+]3=C(c5ccc[nH]5)C=CC3=C4)cc2)ccc1O)C(C)C` [Tolterodine-BZ-NB590], the “NanoBRET Fold Response” value at AVPR2 (AVPR2, tracer 0.1μM) turned out to be 0.97; on AVPR2 (AVPR2, tracer 1μM) it was 1.05; at SSTR1 (SSTR1, tracer 0.1μM), 1.15; on SSTR1 (SSTR1, tracer 1μM) it was 1.20; on MCHR1 (MCHR1, tracer 0.1μM), 0.83; at MCHR1 (MCHR1, tracer 1μM), 0.95.
`O=C(CCc1ccc2n1[B-](F)(F)[N+]1=C(c3ccc[nH]3)C=CC1=C2)NCCOCCOCCNC(=O)OCCOCCN1CCN(C2=Nc3ccccc3Sc3ccccc32)CC1` [Quetiapine-a-2-NB590]: the “NanoBRET Fold Response” value at AVPR2 (AVPR2, tracer 0.1μM) was 1.03; on AVPR2 (AVPR2, tracer 1μM), 0.93; on SSTR1 (SSTR1, tracer 0.1μM), 0.92; on SSTR1 (SSTR1, tracer 1μM), 0.92; at MCHR1 (MCHR1, tracer 0.1μM) it was 1.04; on MCHR1 (MCHR1, tracer 1μM), 0.84.
Turning to `Cc1cc2c(s1)Nc1ccccc1N=C2N1CCN(CCCNC(=O)CCOCCOCCOCCOCCNC(=O)CCc2ccc3n2[B-](F)(F)[N+]2=C(c4ccc[nH]4)C=CC2=C3)CC1` [Olanzapine-a-2-NB590], the “NanoBRET Fold Response” value on AVPR2 (AVPR2, tracer 0.1μM) is 0.98; on AVPR2 (AVPR2, tracer 1μM), 0.92; at SSTR1 (SSTR1, tracer 0.1μM), 1.08; at SSTR1 (SSTR1, tracer 1μM), 1.16; at MCHR1 (MCHR1, tracer 0.1μM), 1.04; at MCHR1 (MCHR1, tracer 1μM), 1.13.
Regarding `O=C(CCc1ccc2n1[B-](F)(F)[N+]1=C(c3ccc[nH]3)C=CC1=C2)NCc1ccc(C(=O)NCCOCCOCCNCC(O)COc2cccc3ccccc23)cc1` (stereo not shown) [Propranolol-3-NB590], the “NanoBRET Fold Response” value at AVPR2 (AVPR2, 0.1μM) is given as 1.00; at AVPR2 (AVPR2, 1μM), 1.00; on SSTR1 (SSTR1, 0.1μM), 1.04; at SSTR1 (SSTR1, 1μM), 1.02; on MCHR1 (MCHR1, 0.1μM), 0.96; on MCHR1 (MCHR1, 1μM), 1.03.
In the case of `CN1CCN(C2=Nc3cc(Cl)ccc3N(CC(=O)NCCOCCOCCOCCOCCNC(=O)CCc3ccc4n3[B-](F)(F)[N+]3=C(c5ccc[nH]5)C=CC3=C4)c3ccccc32)CC1` [Clozapine-c-2-NB590], the “NanoBRET Fold Response” value stood at 0.99 at AVPR2 (AVPR2, 0.1μM tracer); 1.00 on AVPR2 (AVPR2, 1μM tracer); 0.98 on SSTR1 (SSTR1, 0.1μM tracer); 1.02 on SSTR1 (SSTR1, 1μM tracer); 1.00 at MCHR1 (MCHR1, 0.1μM tracer); 0.93 at MCHR1 (MCHR1, 1μM tracer).
Take `O=C(CCc1ccc2n1[B-](F)(F)[N+]1=C(c3ccc[nH]3)C=CC1=C2)NCc1ccc(C(=O)NCCOCCC(=O)N[C@@H]2CC[C@@]3(O)[C@H]4Cc5ccc(O)c6c5[C@@]3(CCN4CC3CC3)[C@H]2O6)cc1` [Naltrexone-3-NB590]: the “NanoBRET Fold Response” value was 1.30 at AVPR2 (AVPR2, tracer 0.1μM); 0.97 on AVPR2 (AVPR2, tracer 1μM); 1.06 at SSTR1 (SSTR1, tracer 0.1μM); 0.96 on SSTR1 (SSTR1, tracer 1μM); 1.07 at MCHR1 (MCHR1, tracer 0.1μM); 0.92 on MCHR1 (MCHR1, tracer 1μM).
With `CC(C)N(CC[C@H](c1ccccc1)c1cc(CCNC(=O)CCOCCOCCOCCOCCNC(=O)CCc2ccc3n2[B-](F)(F)[N+]2=C(c4ccc[nH]4)C=CC2=C3)ccc1O)C(C)C` [Tolterodine-2-NB590], the “NanoBRET Fold Response” value on AVPR2 (AVPR2, tracer 0.1μM) is on record as 1.06; at AVPR2 (AVPR2, tracer 1μM), 1.06; on SSTR1 (SSTR1, tracer 0.1μM), 1.11; on SSTR1 (SSTR1, tracer 1μM), 1.21; on MCHR1 (MCHR1, tracer 0.1μM), 1.18; at MCHR1 (MCHR1, tracer 1μM) it was 0.95.
On to `Cc1nc2n(c(=O)c1CCN1CCC(c3noc4cc(F)ccc34)CC1)CCCC2OC(=O)NCCOCCOCCOCCOCCNC(=O)CCc1ccc2n1[B-](F)(F)[N+]1=C(c3ccc[nH]3)C=CC1=C2` (stereo not shown) [Risperidone-2-NB590], for which the “NanoBRET Fold Response” value on AVPR2 (AVPR2, tracer 0.1μM) is listed as 1.04; on AVPR2 (AVPR2, tracer 1μM), 1.01; on SSTR1 (SSTR1, tracer 0.1μM) it was 1.08; at SSTR1 (SSTR1, tracer 1μM), 0.94; at MCHR1 (MCHR1, tracer 0.1μM), 0.94; on MCHR1 (MCHR1, tracer 1μM) it was 0.97.
For the compound `O=C(CCOCCOCCOCCOCCNC(=O)CCc1ccc2n1[B-](F)(F)[N+]1=C(c3ccc[nH]3)C=CC1=C2)NCCCN1CCN(C2=Nc3cc(Cl)ccc3Nc3ccccc32)CC1` [Clozapine-a-2-NB590], the “NanoBRET Fold Response” value at AVPR2 (AVPR2, 0.1μM tracer) stood at 1.03; at AVPR2 (AVPR2, 1μM tracer), 0.95; at SSTR1 (SSTR1, 0.1μM tracer), 0.96; at SSTR1 (SSTR1, 1μM tracer), 1.00; at MCHR1 (MCHR1, 0.1μM tracer), 0.87; on MCHR1 (MCHR1, 1μM tracer), 1.26.
Turning to `COc1ccc2[nH]c(-c3ccc(CNC(=O)CCOCCOCCOCCOCCNC(=O)CCc4ccc5n4[B-](F)(F)[N+]4=C(c6ccc[nH]6)C=CC4=C5)cc3)c(CCNC(C)=O)c2n1` [AzomelatoninICO9-2-NB590], the “NanoBRET Fold Response” value on AVPR2 (0.1μM tracer) turned out to be 0.84; at AVPR2 (1μM tracer), 0.87; at SSTR1 (0.1μM tracer) it was 1.13; on SSTR1 (1μM tracer), 1.01; on MCHR1 (0.1μM tracer) it was 1.38; at MCHR1 (1μM tracer), 0.88.
Consider `CN1CCN(C2=Nc3cc(Cl)ccc3Nc3ccc(CNC(=O)CCOCCOCCOCCOCCNC(=O)CCc4ccc5n4[B-](F)(F)[N+]4=C(c6ccc[nH]6)C=CC4=C5)cc32)CC1` [Clozapine-b-2-NB590], for which the “NanoBRET Fold Response” value on AVPR2 (AVPR2, 0.1μM tracer) is on record as 1.05; at AVPR2 (AVPR2, 1μM tracer), 0.95; on SSTR1 (SSTR1, 0.1μM tracer), 1.00; on SSTR1 (SSTR1, 1μM tracer), 1.09; on MCHR1 (MCHR1, 0.1μM tracer), 0.96; at MCHR1 (MCHR1, 1μM tracer), 1.00.
For the compound `COc1ccccc1N1CCN(CCCCN2C(=O)c3ccc(CNC(=O)CCOCCNC(=O)c4ccc(CNC(=O)CCc5ccc6n5[B-](F)(F)[N+]5=C(c7ccc[nH]7)C=CC5=C6)cc4)cc3C2=O)CC1` [NAN-190-3-NB590], the “NanoBRET Fold Response” value at AVPR2 (AVPR2, tracer 0.1μM) was 1.08; at AVPR2 (AVPR2, tracer 1μM), 1.11; at SSTR1 (SSTR1, tracer 0.1μM) it was 1.03; at SSTR1 (SSTR1, tracer 1μM), 1.12; on MCHR1 (MCHR1, tracer 0.1μM), 1.20; at MCHR1 (MCHR1, tracer 1μM), 0.86.
With `N#CN=C(NCCCOc1cccc(CN2CCCCC2)c1)NCCNC(=O)CCOCCOCCOCCOCCNC(=O)CCc1ccc2n1[B-](F)(F)[N+]1=C(c3ccc[nH]3)C=CC1=C2` [Aminopotentidine-2-NB590], the “NanoBRET Fold Response” value on AVPR2 (AVPR2, tracer 0.1μM) turned out to be 1.01; at AVPR2 (AVPR2, tracer 1μM), 1.04; at SSTR1 (SSTR1, tracer 0.1μM) it was 1.02; on SSTR1 (SSTR1, tracer 1μM), 0.98; on MCHR1 (MCHR1, tracer 0.1μM), 0.99; on MCHR1 (MCHR1, tracer 1μM) it was 0.95.
As to `CN(CCC=C1c2ccccc2CCc2ccccc21)C(=O)CCOCCOCCOCCOCCNC(=O)CCc1ccc2n1[B-](F)(F)[N+]1=C(c3ccc[nH]3)C=CC1=C2` [Amitriptyline-e-2-NB590], the “NanoBRET Fold Response” value at AVPR2 (tracer at 1μM) was 0.99.
